According to PubChem BioAssay (NCI):
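Abbreviation: GI50, concentration required for 50% inhibition of growth. TGI: concentration producing complete growth inhibition.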

Key:
Assay in all cases: NCI tumour cell line growth inhibition, 384-well format
HL-60(TB) leukemia = system: HL-60(TB) leukemia
CCRF-CEM leukemia = system: CCRF-CEM leukemia
HOP-92 NSCLC = system: HOP-92 NSCLC
SK-MEL-5 melanoma = system: SK-MEL-5 melanoma
NCI/ADR-RES ovarian = system: NCI/ADR-RES ovarian
HCT-15 colon = system: HCT-15 colon
RXF 393 renal = system: RXF 393 renal
UO-31 renal = system: UO-31 renal
LOX IMVI melanoma = system: LOX IMVI melanoma
OVCAR-5 ovarian = system: OVCAR-5 ovarian
DU-145 prostate = system: DU-145 prostate
NCI-H322M lung = system: NCI-H322M lung
SK-OV-3 ovarian = system: SK-OV-3 ovarian
RPMI-8226 leukemia = system: RPMI-8226 leukemia
UACC-62 melanoma = system: UACC-62 melanoma
HCC-2998 colon = system: HCC-2998 colon
SN12C renal = system: SN12C renal
SR leukemia = system: SR leukemia
MDA-MB-231 breast = system: MDA-MB-231 breast
NCI-H226 lung = system: NCI-H226 lung
U251 glioblastoma = system: U251 glioblastoma
A498 renal = system: A498 renal
COLO 205 colon = system: COLO 205 colon
T-47D breast = system: T-47D breast
MDA-MB-435 melanoma = system: MDA-MB-435 melanoma
EKVX NSCLC = system: EKVX NSCLC
KM12 colon = system: KM12 colon
786-0 renal = system: 786-0 renal
A549 NSCLC = system: A549 NSCLC
IGROV1 ovarian = system: IGROV1 ovarian
OVCAR-3 ovarian = system: OVCAR-3 ovarian
SNB-19 CNS = system: SNB-19 CNS
ACHN renal = system: ACHN renal
CAKI-1 renal = system: CAKI-1 renal
TK-10 renal = system: TK-10 renal
SW-620 colon = system: SW-620 colon
OVCAR-8 ovarian = system: OVCAR-8 ovarian
SF-539 CNS = system: SF-539 CNS
OVCAR-4 ovarian = system: OVCAR-4 ovarian
PC-3 prostate = system: PC-3 prostate
NCI-H460 NSCLC = system: NCI-H460 NSCLC
SNB-75 CNS = system: SNB-75 CNS
K-562 leukemia = system: K-562 leukemia
MOLT-4 leukemia = system: MOLT-4 leukemia
MALME-3M melanoma = system: MALME-3M melanoma
SK-MEL-28 melanoma = system: SK-MEL-28 melanoma
HT29 colon = system: HT29 colon
SF-268 CNS = system: SF-268 CNS
HOP-62 NSCLC = system: HOP-62 NSCLC
BT-549 breast = system: BT-549 breast
M14 melanoma = system: M14 melanoma
NCI-H522 lung = system: NCI-H522 lung
UACC-257 melanoma = system: UACC-257 melanoma
MCF7 breast = system: MCF7 breast
HS 578T breast = system: HS 578T breast
MDA-MB-468 breast = system: MDA-MB-468 breast
NCI-H23 lung = system: NCI-H23 lung
SF-295 CNS = system: SF-295 CNS

With `O=C(Nc1cccc(Nc2ncc(Br)c(NCCc3cnc[nH]3)n2)c1)N1CCCC1` the GI50 (HL-60(TB) leukemia) was 0.399 µM, the TGI (HL-60(TB) leukemia) was 1.94 µM and the GI50 (CCRF-CEM leukemia) was 0.19 µM. For the same compound, the TGI (CCRF-CEM leukemia) was 0.377 µM, the GI50 (HOP-92 NSCLC) was 1.6 µM and the TGI (HOP-92 NSCLC) was 6.13 µM. For the same compound, the GI50 (SK-MEL-5 melanoma) was 3.58 µM, the TGI (SK-MEL-5 melanoma) was 14.6 µM and the GI50 (NCI/ADR-RES ovarian) was > 100 µM. For the same compound, the TGI (NCI/ADR-RES ovarian) was > 100 µM, the GI50 (HCT-15 colon) was 11.4 µM and the TGI (HCT-15 colon) was 25.6 µM. It also gave a GI50 (RXF 393 renal) of 6.04 µM, a TGI (RXF 393 renal) of 20.9 µM and a GI50 (UO-31 renal) of 26.6 µM. For the same compound, the TGI (UO-31 renal) was > 100 µM, the GI50 (LOX IMVI melanoma) was 1.18 µM and the TGI (LOX IMVI melanoma) was 2.8 µM. For the same compound, the GI50 (OVCAR-5 ovarian) was 4.3 µM, the TGI (OVCAR-5 ovarian) was 24.9 µM and the GI50 (DU-145 prostate) was 5.13 µM. It also gave a TGI (DU-145 prostate) of 19.3 µM, a GI50 (NCI-H322M lung) of 10.3 µM and a TGI (NCI-H322M lung) of 22.3 µM. For the same compound, the GI50 (SK-OV-3 ovarian) was 4.21 µM, the TGI (SK-OV-3 ovarian) was 18.8 µM and the GI50 (RPMI-8226 leukemia) was 1.45 µM. The TGI (RPMI-8226 leukemia) was 2.9 µM, the GI50 (UACC-62 melanoma) was 1.69 µM and the TGI (UACC-62 melanoma) was 14.2 µM. For the same compound, the GI50 (HCC-2998 colon) was 6.06 µM, the TGI (HCC-2998 colon) was 19 µM and the GI50 (SN12C renal) was 1.48 µM. For the same compound, the TGI (SN12C renal) was 10.6 µM, the GI50 (SR leukemia) was 0.18 µM and the TGI (SR leukemia) was 0.349 µM. The GI50 (MDA-MB-231 breast) was 2.4 µM, the TGI (MDA-MB-231 breast) was 12.7 µM and the GI50 (NCI-H226 lung) was 0.873 µM. For the same compound, the TGI (NCI-H226 lung) was 4.74 µM, the GI50 (U251 glioblastoma) was 9.49 µM and the TGI (U251 glioblastoma) was 79.1 µM. For the same compound, the GI50 (A498 renal) was 4.58 µM, the TGI (A498 renal) was 60.7 µM and the GI50 (COLO 205 colon) was 0.273 µM. The TGI (COLO 205 colon) was 0.886 µM, the GI50 (T-47D breast) was 4.37 µM and the TGI (T-47D breast) was 17.2 µM. It also gave a GI50 (MDA-MB-435 melanoma) of 2.96 µM, a TGI (MDA-MB-435 melanoma) of 16.5 µM and a GI50 (EKVX NSCLC) of 6.65 µM. It also gave a TGI (EKVX NSCLC) of 27.3 µM, a GI50 (KM12 colon) of 0.684 µM and a TGI (KM12 colon) of 10.6 µM. For the same compound, the GI50 ([…]-0 renal) was 5.36 µM, the TGI (786-0 renal) was 19.5 µM and the GI50 (A549 NSCLC) was 6.32 µM. For the same compound, the TGI (A549 NSCLC) was > 100 µM, the GI50 (IGROV1 ovarian) was 6.48 µM and the TGI (IGROV1 ovarian) was 21.1 µM. The GI50 (OVCAR-3 ovarian) was 2.72 µM, the TGI (OVCAR-3 ovarian) was 17.3 µM and the GI50 (SNB-19 CNS) was 8.32 µM. The TGI (SNB-19 CNS) was 46.8 µM, the GI50 (ACHN renal) was 12.8 µM and the TGI (ACHN renal) was 59.5 µM. For the same compound, the GI50 (CAKI-1 renal) was 3.62 µM, the TGI (CAKI-1 renal) was 19.7 µM and the GI50 (TK-10 renal) was 7.86 µM. It also gave a TGI (TK-10 renal) of 23.8 µM, a GI50 (SW-620 colon) of 1.6 µM and a TGI (SW-620 colon) of 5.1 µM. For the same compound, the GI50 (OVCAR-8 ovarian) was 5.61 µM, the TGI (OVCAR-8 ovarian) was 18.9 µM and the GI50 (SF-539 CNS) was 0.955 µM. The TGI (SF-539 CNS) was 4.06 µM, the GI50 (OVCAR-4 ovarian) was 1.13 µM and the TGI (OVCAR-4 ovarian) was 10.4 µM. For the same compound, the GI50 (PC-3 prostate) was 4.38 µM, the TGI (PC-3 prostate) was 18.4 µM and the GI50 (NCI-H460 NSCLC) was 2.96 µM. For the same compound, the TGI (NCI-H460 NSCLC) was 8.71 µM, the GI50 (SNB-75 CNS) was 2 µM and the TGI (SNB-75 CNS) was 8.78 µM. For the same compound, the GI50 (K-562 leukemia) was 2.05 µM, the TGI (K-562 leukemia) was 10.5 µM and the GI50 (MOLT-4 leukemia) was 0.202 µM. For the same compound, the TGI (MOLT-4 leukemia) was 0.403 µM, the GI50 (MALME-3M melanoma) was 4.16 µM and the TGI (MALME-3M melanoma) was 17.9 µM. For the same compound, the GI50 (SK-MEL-28 melanoma) was 5.06 µM, the TGI (SK-MEL-28 melanoma) was 18.7 µM and the GI50 (HT29 colon) was 4.1 µM. For the same compound, the TGI (HT29 colon) was 18.5 µM, the GI50 (SF-268 CNS) was 1.92 µM and the TGI (SF-268 CNS) was 10.2 µM. It also gave a GI50 (HOP-62 NSCLC) of 2.78 µM, a TGI (HOP-62 NSCLC) of 12.4 µM and a GI50 (BT-549 breast) of 1.57 µM. For the same compound, the TGI (BT-549 breast) was 5.23 µM, the GI50 (M14 melanoma) was 3.02 µM and the TGI (M14 melanoma) was 12.9 µM. For the same compound, the GI50 (NCI-H522 lung) was 1.08 µM, the TGI (NCI-H522 lung) was 4.86 µM and the GI50 (UACC-257 melanoma) was 10.5 µM. The TGI (UACC-257 melanoma) was 22.4 µM, the GI50 (MCF7 breast) was 3.67 µM and the TGI (MCF7 breast) was 19.9 µM. For the same compound, the GI50 (HS 578T breast) was 1.44 µM, the TGI (HS 578T breast) was 3.59 µM and the GI50 (MDA-MB-468 breast) was 0.283 µM. It also gave a TGI (MDA-MB-468 breast) of 0.631 µM, a GI50 (NCI-H23 lung) of 2.31 µM and a TGI (NCI-H23 lung) of 10.7 µM. For the same compound, the GI50 (SF-295 CNS) was 3.77 µM and the TGI (SF-295 CNS) was 14.5 µM.
